Bounds are passed on as bounds.

T1 sequence (P31749 whole entry, the tested form may be a part): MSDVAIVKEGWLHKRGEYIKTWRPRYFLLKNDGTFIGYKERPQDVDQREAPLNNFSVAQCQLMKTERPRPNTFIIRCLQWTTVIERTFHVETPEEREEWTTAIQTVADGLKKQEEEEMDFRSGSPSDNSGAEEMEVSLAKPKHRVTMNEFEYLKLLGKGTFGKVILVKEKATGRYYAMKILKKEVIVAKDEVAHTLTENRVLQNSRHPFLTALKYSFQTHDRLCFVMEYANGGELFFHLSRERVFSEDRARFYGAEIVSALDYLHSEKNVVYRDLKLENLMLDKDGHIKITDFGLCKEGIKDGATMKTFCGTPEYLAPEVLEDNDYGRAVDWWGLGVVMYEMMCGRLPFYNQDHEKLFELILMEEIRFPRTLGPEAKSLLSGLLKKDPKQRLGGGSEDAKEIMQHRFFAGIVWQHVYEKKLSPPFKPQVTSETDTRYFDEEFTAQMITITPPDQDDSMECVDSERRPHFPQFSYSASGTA

The experiment has as its target T1, AKT Kinase-NanoLuc fusion in HEK-293 cells (Homo sapiens, UniProt P31749).
T1 construct: host or cells: HEK-293
As to the kind of experiment: NanoBRET target engagement assay in transfected HEK-293 cells, AKT. Type of experiment: cell-based. The conditions noted are these: Table 28, NanoBRET, HEK-293 cells; read-out: AKT1 (Cellular) IC50. The text has this:
The NanoBRET™ assay measures kinase engagement in real time in the context of the intact cell. The assay uses a Kinase-NanoLuc® fusion vector expressing a kinase protein to which a luciferase tag has been added, a cell-permeant fluorescent NanoBRET™ tracer, a NanoLuc® substrate, and an extracellular NanoLuc® inhibitor. Upon expression of the luciferase-tagged kinase, cells will produce a strong BRET signal only in the presence of the NanoBRET™ tracer. The extracellular NanoLuc® inhibitor ensures that the BRET signal observed emanates only from live cells. Because the BRET signal has tight distance constraints, addition of the test compound will decrease the BRET signal if the compound competes with the NanoBRET™ tracer for binding to the kinase domain. Under the appropriate tracer conditions established by the manufacturer, quantitative intracellular affinity and relative potency can then be determined using Mass Action model equations.
HEK-293 cells were purchased from ATCC. FuGENEHD Transfection Reagent, Kinase-NanoLuc® fusion plasmids, Transfection Carrier DNA, NanoBRET™ Tracers and dilution buffer, NanoBRET™ Nano-Glo Substrate, Extracellular NanoLuc® Inhibitor were obtained from Promega.
Assays were conducted following Promega assay protocol with some modifications as described further below. HEK-293 Cells were transiently transfected with Kinase-NanoLuc® Fusion Vector DNA by FuGENE HD Transfection Reagent. Test compounds were delivered into 384 well assay plate by Echo 550 (Labcyte Inc, Sunnyvale, CA). Transfected cells were harvested and mixed with NanoBRET™ Tracer Reagent and dispensed into 384 well plates and incubated at 37° C. in 5% CO2 cell culture incubator for 1 hour. The NanoBRET™ Nano-Glo Substrate plus Extracellular NanoLuc® Inhibitor Solution were added into the wells of the assay plate and incubated for 2-3 minutes at room temperature. The donor emission wavelength (460 nm) and acceptor emission wavelength (600 nm) were measured in the EnVision plate reader. The BRET Ratios were calculated. BRET Ratio=[(Acceptor sample÷Donor sample)−(Acceptor no-tracer control÷Donor no-tracer control)]. The IC50 values of compounds were calculated with Prism GraphPad program.
• 1. Transient Transfection of HEK-293 Cells NanoLuc® Fusion Vector DNA • 1). Cultivate HEK-293 cells (70-80% confluence) appropriately prior to assay. Trypsinize and collect HEK-293 cells. • 2). Prepare lipid: DNA complexes as follows: • a. Prepare a […] solution of DNA in Opti-MEM™ without serum that consists of the following ratios of carrier DNA and DNA encoding NanoLuc® fusion. 9.0 µg/mL of Transfection Carrier DNA, […] of NanoLuc® fusion vector DNA and 1 mL of Opti-MEM™ without phenol red. Mix thoroughly. • b. Add 30 μl of FuGENE HD Transfection Reagent into each milliliter of DNA mixture to form lipid: DNA complex. • c. Mix by inversion 10 times. • d. Incubate at ambient temperature for 20 minutes to allow complexes to form. • 3). In a sterile, conical tube, mix 1 part of lipid: DNA complex with 20 parts of HEK-293 cells in suspension. Mix gently by inversion 5 times. • 4). Dispense cells+lipid: DNA complex into a sterile tissue culture dish and incubate for 22-24 hours. • 2. Addition of Test Compounds (dry plate shooting): Each test compound is delivered from the compound source plate to the wells of 384-well white NBS plate by Echo 550. • 3. Preparation of Cells with NanoBRET™ Tracer Reagent • 1). Remove medium from dish with transfected HEK-293 cells via aspiration, trypsinize and allow cells to dissociate from the dish. • 2). Neutralize trypsin using medium containing serum and centrifuge at 200× g for 5 minutes to pellet the cells. Adjust the cell density to 2×10^5 cells/mL in Opti-MEM™ without phenol red. • 3). Prepare Complete 20× NanoBRET™ Tracer Reagent with Tracer Dilution Buffer. • 4). Dispense one part of Complete 20× NanoBRET™ Tracer Reagent to 20 parts of cells in the tube. Mix gently by inversion 10 times. • 5). […]
For the molecule `C[C@@H]1CNC[C@H](C)[C@@]1(O)c1ccc(-c2ccnc3[nH]cc(F)c23)cc1Cl` [Compound 1, (3S,4S,5R)-4-(2-chloro-4-(3-fluoro-1H-pyrrolo[2,3-b]pyridin-4-yl)phenyl)-3,5-dimethylpiperidin-4-ol], the IC50 – broadly, the midpoint of a concentration-inhibition curve – was 21.2 µM.
Under `C[C@@H]1CNC[C@H](C)[C@@]1(O)c1ccc(-c2ccnc3[nH]cc(F)c23)cc1` [Compound 2, (3R,4s,5S)-4-(4-(3-fluoro-1H-pyrrolo[2,3-b]pyridin-4-yl)phenyl)-3,5-dimethylpiperidin-4-ol] stands over 50 µM; under `C[C@@H]1CNC[C@H](C)[C@@]1(O)c1ccc(-c2ccnc3[nH]cc(F)c23)cc1F` [Compound 7, (3S,4s,5R)-4-(2-fluoro-4-(3-fluoro-1H-pyrrolo[2,3-b]pyridin-4-yl)phenyl)-3,5-dimethyl piperidin-4-ol], 8.64 µM.
Under `C[C@@H]1CNC[C@H](C)[C@@]1(O)c1ccc(-c2ccnc3[nH]cc(F)c23)nc1` [Compound 8, (3S,4s,5R)-4-(6-(3-fluoro-1H-pyrrolo[2,3-b]pyridin-4-yl)pyridin-3-yl)-3,5-dimethylpiperidin-4-ol] stands 8.64 µM; under `Cc1cc(-c2ccnc3[nH]cc(F)c23)ccc1[C@@]1(O)[C@H](C)CNC[C@@H]1C` [Compound 9, (3S,4s,5R)-4-(4-(3-fluoro-1H-pyrrolo[2,3-b]pyridin-4-yl)-2-methylphenyl)-3,5-dimethylpiperidin-4-ol], 15.2 µM.
As for `C[C@@H]1CNC[C@H](C)[C@@]1(O)c1c(F)cc(-c2ccnc3[nH]cc(F)c23)cc1F` [Compound 13], the figure is 16.1 µM; as for `C[C@@H]1CNC[C@H](C)[C@@]1(O)c1ccc(-c2ccnc3[nH]cc(F)c23)cc1OC(F)(F)F` [Compound 14, (3S,4s,5R)-4-(4-(3-fluoro-1H-pyrrolo[2,3-b]pyridin-4-yl)-2-(trifluoromethoxy)phenyl)-3,5-dimethylpiperidin-4-ol], 4.95 µM.
Regarding `C[C@@H]1CN(Cc2ccccn2)C[C@H](C)[C@@]1(O)c1c(F)cc(-c2ccnc3[nH]cc(F)c23)cc1F` [Compound 17, (3S,4s,5R)-4-(2,6-difluoro-4-(3-fluoro-1H-pyrrolo[2,3-b]pyridin-4-yl)phenyl)-3,5-dimethyl-1-(pyridin-2-ylmethyl)piperidin-4-ol], the IC50 was found to be 24.1 µM.
As for `C[C@@H]1CN(C)C[C@H](C)[C@@]1(O)c1cnc(-c2ccnc3[nH]cc(F)c23)cc1Cl` [Compound 22, (3S,4s,5R)-4-(4-chloro-6-(3-fluoro-1H-pyrrolo[2,3-b]pyridin-4-yl)pyridin-3-yl)-1,3,5-trimethylpiperidin-4-ol], the figure is 2.51 µM; as for `Cc1cc(-c2ccnc3[nH]cc(F)c23)ccc1[C@@]1(O)[C@H](C)CN(C2COC2)C[C@@H]1C` [Compound 24, (3S,4s,5R)-4-(4-(3-fluoro-1H-pyrrolo[2,3-b]pyridin-4-yl)-2-methylphenyl)-3,5-dimethyl-1-(oxetan-3-yl)piperidin-4-ol], 56.2 µM; as for `Cc1cc(-c2ccnc3[nH]cc(F)c23)ccc1[C@@]1(O)[C@H](C)CN(C(C)C)C[C@@H]1C` [Compound 29, (3S,4s, 5R)-4-(4-(3-fluoro-1H-pyrrolo[2,3-b]pyridin-4-yl)-2-methylphenyl)-1-isopropyl-3,5-dimethylpiperidin-4-ol], 17 µM.
For `Cc1cc(-c2ccnc3[nH]cc(F)c23)cc(F)c1C1(O)[C@H](C)CN(C2COC2)C[C@@H]1C` (stereo partly drawn) [Compound 30, (3S,5R)-4-(2-fluoro-4-(3-fluoro-1H-pyrrolo[2,3-b]pyridin-4-yl)-6-methylphenyl)-3,5-dimethyl-1-(oxetan-3-yl)piperidin-4-ol], the IC50 was over 30 µM.
Under `C[C@@H]1CN(C2CCS(=O)(=O)CC2)C[C@H](C)C1(O)c1c(F)cc(-c2ccnc3[nH]cc(F)c23)cc1F` (stereo partly drawn) [Compound 31, 4-((3S,5R)-4-(2,6-difluoro-4-(3-fluoro-1H-pyrrolo[2,3-b]pyridin-4-yl)phenyl)-4-hydroxy-3,5-dimethylpiperidin-1-yl)tetrahydro-2H-thiopyran 1,1-dioxide] stands 39.4 µM.
As for `C[C@@H]1CN(C)C[C@H](C)[C@@]1(O)c1ccc(-c2ccnc3[nH]cc(F)c23)cc1` [Compound 39, (3R,4s,5S)-4-(4-(3-fluoro-1H-pyrrolo[2,3-b]pyridin-4-yl)phenyl)-1,3,5-trimethylpiperidin-4-ol], the figure is over 50 µM; as for `C[C@@H]1CN(C)C[C@H](C)[C@@]1(O)c1ccc(-c2ccnc3[nH]cc(F)c23)nc1` [Compound 41, (3R,4s,5S)-4-(6-(3-fluoro-1H-pyrrolo[2,3-b]pyridin-4-yl)pyridin-3-yl)-1,3,5-trimethylpiperidin-4-ol], 8.64 µM; as for `C[C@@H]1CN(C2COC2)C[C@H](C)[C@@]1(O)c1c(F)cc(-c2ccnc3[nH]cc(F)c23)cc1F` [Compound 45, (3S,4s,5R)-4-(2,6-difluoro-4-(3-fluoro-1H-pyrrolo[2,3-b]pyridin-4-yl)phenyl)-3, S-dimethyl-1-(oxetan-3-yl)piperidin-4-ol], over 30 µM.
Under `C[C@@H]1CN(C2CCC2)C[C@H](C)[C@@]1(O)c1c(F)cc(-c2ccnc3[nH]cc(F)c23)cc1F` [Compound 46, (3R,4s,5S)-1-cyclobutyl-4-(2,6-difluoro-4-(3-fluoro-1H-pyrrolo[2,3-b]pyridin-4-yl)phenyl)-3,5-dimethylpiperidin-4-ol] stands 31.5 µM.
Take `Cc1cc(-c2ccnc3[nH]cc(F)c23)ncc1[C@@]1(O)[C@H](C)CN(C2CCS(=O)(=O)CC2)C[C@@H]1C` [Compound 51, 4-((3R,4s,5S)-4-(6-(3-fluoro-1H-pyrrolo[2,3-b]pyridin-4-yl)-4-methylpyridin-3-yl)-4-hydroxy-3,5-dimethylpiperidin-1-yl)tetrahydro-2H-thiopyran 1,1-dioxide]: the half-inhibitory concentration (IC50) is over 30 µM.
On to `Cc1cc(-c2ccnc3[nH]cc(F)c23)ccc1[C@@]1(O)[C@H](C)CN(C2CCC2)C[C@@H]1C` [Compound 54, (3R,4s,5S)-1-cyclobutyl-4-(4-(3-fluoro-1H-pyrrolo[2,3-b]pyridin-4-yl)-2-methylphenyl)-3,5-dimethylpiperidin-4-ol], for which the half-inhibitory concentration (IC50) amounted to 2.97 µM.
As for `Cc1cc(-c2ccnc3[nH]cc(F)c23)ccc1[C@@]1(O)[C@H](C)CN(C2CCS(=O)(=O)CC2)C[C@@H]1C` [Compound 55, 4-((3R,4s, 5S)-4-(4-(3-fluoro-1H-pyrrolo[2,3-b]pyridin-4-yl)-2-methylphenyl)-4-hydroxy-3,5S-dimethylpiperidin-1-yl)tetrahydro-2H-thiopyran 1,1-dioxide], the figure is 19.8 µM; as for `Cc1cc(-c2ccnc3[nH]cc(F)c23)cc(F)c1[C@@]1(O)[C@H](C)CN(C2CCS(=O)(=O)CC2)C[C@@H]1C` [Compound 57, 4-((3R,4s,5S)-4-(2-fluoro-4-(3-fluoro-1H-pyrrolo[2,3-b]pyridin-4-yl)-6-methylphenyl)-4-hydroxy-3,5-dimethylpiperidin-1-yl)tetrahydro-2H-thiopyran 1,1-dioxide], 31.9 µM; as for `C[C@@H]1CN(C(=O)CN)C[C@H](C)[C@@]1(O)c1c(F)cc(-c2ccnc3[nH]cc(F)c23)cc1F` [Compound 58], 18.2 µM.
As for `Cc1cc(-c2ccnc3[nH]cc(F)c23)ccc1[C@@]1(O)[C@H](C)CN(C(=O)CN)C[C@@H]1C` [Compound 60, 2-amino-1-((3R,4s,5S)-4-(4-(3-fluoro-1H-pyrrolo[2,3-b]pyridin-4-yl)-2-methylphenyl)-4-hydroxy-3,5-dimethylpiperidin-1-yl)ethan-1-one], the figure is 9.35 µM.
